According to PMC4847155 (Biochemical Journal, 2016):
Counter-ions that a name gives are not always drawn. Like-named read-outs stand apart in the source and are kept apart here.

Columns and labels:
[1] = target: C126A Bax (Homo sapiens, UniProt Q07812, C126A); conditions: mitochondria, 20 nM Bax, 10 μM compound
[2] = test system: Wt BMK cells; experiment: Live-cell imaging of cell death; format: cell-based, mouse; conditions: for effect on apoptosis of Wt compared with DKO cells (annexin V staining): Wt versus DKO BMK cells, among the five compounds
[3] = target: T1, Bax (Homo sapiens, UniProt Q07812); format: biochemical; conditions: 100 nM Bax, 10 μM compound or 20 nM cBid/Bim, no membranes, DSS
[4] = test system: Bax−/− Bak−/− (DKO) BMK cells; experiment: Live-cell imaging of cell death; format: cell-based, mouse; conditions: 24 h
[5] = target: T1, Bax; format: biochemical; conditions: 100 nM Bax, 10 μM compound, DSS
[6] = target: T1, Bax; experiment: biochemical; format: biochemical
[7] = target: T1, Bax; experiment: biochemical

T1 sequence (Q07812 whole entry): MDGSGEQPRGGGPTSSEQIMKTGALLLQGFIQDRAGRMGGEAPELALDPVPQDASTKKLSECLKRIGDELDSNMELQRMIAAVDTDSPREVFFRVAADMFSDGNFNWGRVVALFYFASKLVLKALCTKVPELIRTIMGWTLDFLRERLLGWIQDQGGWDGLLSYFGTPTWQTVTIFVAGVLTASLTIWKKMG
Chain of C126A Bax (Q07812 whole entry C126A): as the sequence (Q07812 whole entry) above, with C126A counted along it

Compound	activation of C126A Bax [1]	formation of dimers and higher-order Bax oligomers in solution [3]	effect on apoptosis of Wt compared with DKO cells (annexin V staining) [2]	EC50 [7] [µM]	EC50 [6] [µM]	also measured
O=c1c2ccccc2[se]n1-c1ccccc1 [Ebselen, ebselen]	almost completely resistant	pronounced effects				toxicity to cells ([2]; Wt BMK cells, 24 h): not toxic; toxicity to cells ([4]; DKO BMK cells): not toxic
CC(=O)[O][Hg][c]1ccccc1 [PMA, phenylmercuric acetate]			most pronounced effects			Bax oligomerization (higher-order complexes) in liposomes [5]: most pronounced effects; EC50 ([6]; read-out: EC50 in mitochondria, 20 nM Bax, mitochondria from Bax−/− Bak−/− BMK cells, Smac–mCherry release): 1.3 µM
CC1=CC(=O)c2c(O)cccc2C1=O [Plumbagin, plumbagin]			most pronounced effects	> 3	1.5	
CC(C)N(CCC(=O)c1ccc2ccccc2c1)Cc1ccccc1 [ZM, ZM39923 hydrochloride]	almost completely resistant			> 3	3.5	EC50 ([2]; Mus musculus, 24 h, read-out: EC50 of cell kill): ~10 µM; EC50 ([4]; Mus musculus, read-out: EC50 of cell kill): ~10 µM
Bim: pro-apoptotic BH3 protein, recombinant, positive control for Bax oligomerization		no effects				
